# Literature values in US11044905B2, “Tablet with an antimycotic agent, medical device and method for preserving harvested corneas” (ALCHILIFE S.R.L., priority 2018, dated 2021).
# Settings: organ culture preservation, 31° C.
smiles,measurement,value
C[C@@H]1[C@H](O)[C@@H](C)/C=C/C=C/C=C/C=C/C=C/C=C/C=C/[C@H](O[C@@H]2O[C@H](C)[C@@H](O)[C@H](N)[C@@H]2O)C[C@@H]2O[C@](O)(C[C@@H](O)C[C@@H](O)[C@H](O)CC[C@@H](O)C[C@@H](O)CC(=O)O[C@H]1C)C[C@H](O)[C@H]2C(=O)O [Amphotericin B],period of effective protection under conditions of use,≤ 14 days
